Experiment [1] addresses T1, CKR-1 (Caenorhabditis elegans, UniProt P91487).
T1 sequence (P91487 1-421): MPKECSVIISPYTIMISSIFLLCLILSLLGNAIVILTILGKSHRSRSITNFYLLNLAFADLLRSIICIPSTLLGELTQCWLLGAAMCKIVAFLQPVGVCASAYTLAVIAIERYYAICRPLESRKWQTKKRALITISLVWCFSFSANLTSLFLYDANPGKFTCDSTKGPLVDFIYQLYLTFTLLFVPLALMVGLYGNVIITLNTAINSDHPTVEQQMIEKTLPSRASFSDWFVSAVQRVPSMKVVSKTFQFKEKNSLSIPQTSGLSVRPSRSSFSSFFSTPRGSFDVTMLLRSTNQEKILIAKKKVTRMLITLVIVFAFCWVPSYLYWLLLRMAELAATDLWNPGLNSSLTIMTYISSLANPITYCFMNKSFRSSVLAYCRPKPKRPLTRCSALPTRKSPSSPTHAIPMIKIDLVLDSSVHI
Description: GPCR activation assay, CKR-1 (aequorin bioluminescence calcium, CHO-K1 Gα16). The class given is cell-based. The settings on record: for ratio of total calcium response: in vitro controls, CKR-1. On the procedure: (§1) To obtain direct evidence for NLP-12 activation of CKR-1, we used an in vitro bioluminescence-based approach. CKR-1 was expressed in Chinese hamster ovarian (CHO) cells stably expressing the promiscuous G-protein alpha subunit Gα16 and a bioluminescent calcium indicator, aequorin ([Caers et al., 2014]). The NLP-12 precursor gives rise to two distinct mature peptides, NLP-12–1 and NLP-12–2.
(§2) The GPCR activation assay was performed as previously described ([Caers et al., 2014]; [Peymen et al., 2019]; [Van Sinay et al., 2017]). Briefly, CHO-K1 cells stably expressing the luminescent Ca^2+ indicator aequorin and the promiscuous Gα16 protein (ES-000-A24 cell line, PerkinElmer) were transiently transfected with ckr-1/pcDNA3.1, ckr-2/pcDNA3.1, or empty pcDNA3.1 vector. Cells were transfected with Lipofectamine LTX and Plus reagent (Invitrogen) at 60–80% confluency and grown overnight at 37°C. After 24 hr, they were shifted to 28°C overnight. On the day of the assay, transfected cells were collected in bovine serum albumin (BSA) medium (DMEM/F12 without phenol red with L-glutamine and 15 mM HEPES, Gibco, supplemented with 0.1% BSA), at a density of 5 million cells per ml, and loaded with 5 µM coelenterazine h (Invitrogen) for 4 hr at room temperature. Compound plates containing synthetic peptides in DMEM/BSA were placed in a MicroBeta LumiJet luminometer (PerkinElmer). After loading, the transfected cells were added at a density of 25,000 cells/well, and luminescence was measured for 30 s at a wavelength of 469 nm. After 30 s, 0.1% triton X-100 (Merck) was added to lyse the cells, resulting in a maximal Ca^2+ response that was measured for 30 s. To constitute concentration-response curves of NLP-12 peptides, peptide concentrations ranging from 1 pM to 10 µM were tested in triplicate on 2 independent days.

Experiment [2] concerns the target CKR-2 (Caenorhabditis elegans, UniProt M1Z894). Nature of the experiment: GPCR activation assay, CKR-2 (aequorin bioluminescence calcium, CHO-K1 Gα16). The class given is cell-based. The settings on record: for ratio of total calcium response: in vitro controls, CKR-2. As to the method:
as §1, §2

Experiment [3] concerns CHO cells transfected with an empty pcDNA3.1 vector. Description: GPCR activation assay, control cells transfected with empty pcDNA3.1 vector. It is filed as cell-based, Chinese hamster. The settings on record: in vitro controls. As to the method:
as §1, §2

The test system of experiment [4] is SMD neurons, Caenorhabditis elegans. The settings on record: in vivo.
Setting [5] is: CHO-K1 cells, aequorin/Gα16, 1 pM to 10 µM, triplicate on 2 independent days (n=6), luminescence 469 nm, 30 s, read-out: EC50 (CKR-1 activation, calcium response).
[6] abbreviates: concentration-response curve fit, n=6, read-out: 95% confidence interval (EC50, CKR-1 activation).
[7] abbreviates: read-out: 95% confidence interval (EC50, CKR-2 activation), concentration-response curve fit, n=6.
[8] abbreviates: read-out: EC50 (CKR-2 activation, calcium response), CHO-K1 cells, aequorin/Gα16, 1 pM to 10 µM, triplicate on 2 independent days (n=6), luminescence 469 nm, 30 s.

Like-named read-outs stand apart in the source and are kept apart here. No end group written: not given here.

Chain of CKR-2 (M1Z894 entry or part of it): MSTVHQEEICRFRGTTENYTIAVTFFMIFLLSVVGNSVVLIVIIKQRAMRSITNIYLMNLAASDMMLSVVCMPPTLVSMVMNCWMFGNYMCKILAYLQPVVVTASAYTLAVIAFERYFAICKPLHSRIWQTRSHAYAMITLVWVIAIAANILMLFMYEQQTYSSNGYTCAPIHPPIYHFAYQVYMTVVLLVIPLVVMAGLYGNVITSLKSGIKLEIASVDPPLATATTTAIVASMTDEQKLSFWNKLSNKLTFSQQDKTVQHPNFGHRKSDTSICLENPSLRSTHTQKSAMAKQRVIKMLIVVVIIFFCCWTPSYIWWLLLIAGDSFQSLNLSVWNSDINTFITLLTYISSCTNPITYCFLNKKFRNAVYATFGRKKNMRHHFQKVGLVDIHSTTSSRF

As to `Nc1ncnc2c1ncn2[C@@H]1O[C@H](COP(=O)(O)OP(=O)(O)OP(=O)(O)O)[C@@H](O)[C@H]1O` [ATP], the “ratio of total calcium response” value in experiment [1] (replicate 1) stood at 0.6901; in experiment [1] (replicate 2) it was 0.479; in experiment [1] (replicate 3), 0.5419; in experiment [1] (replicate 4), 0.7243; in experiment [1] (replicate 5), 0.7237; in experiment [2] (replicate 1), 0.7753. Also, the “ratio of total calcium response” value in experiment [2] (replicate 2) amounted to 0.8315; in experiment [2] (replicate 3), 0.845; in experiment [2] (replicate 4), 0.8913; in experiment [2] (replicate 5) it was 0.8945; in experiment [3] (replicate 1), 0.9381; in experiment [3] (replicate 2), 0.6003. In addition, the “ratio of total calcium response” value in experiment [3] (replicate 3) worked out at 0.6268; in experiment [3] (replicate 4) it was 0.814; in experiment [3] (replicate 5) it was 0.8225.

Take `NCCc1c[nH]cn1` [histamine]: the “reorientations during food searching upon SMD silencing” value in experiment [4] was “reduced reorientations with SMD silencing in transgenics”.

In general, EC50 refers to the concentration needed to bring the measured effect to its halfway point. For the compound DGYRPLQF-NH2 [NLP-12-2, DGYRPLQFamide], the EC50 in experiment [1] (setting [5]) is 1.9 nM; in experiment [1] (setting [6]) it was 0.93 to 3.77 nM; in experiment [2] (setting [7]), 6.43 to 16.7 nM; in experiment [2] (setting [8]), 10.2 nM.

For DYRPLQF-NH2 [NLP-12-1, DYRPLQFamide], the EC50 was 3.5 nM in experiment [1] (setting [5]), 1.79 to 7.07 nM in experiment [1] (setting [6]), 5.16 to 12.5 nM in experiment [2] (setting [7]) and 8 nM in experiment [2] (setting [8]).

Source of the values: paper PMC8626090, “A conserved neuropeptide system links head and body motor circuits to enable adaptive behavior” (eLife, 2021).
